Test results taken from PMC12477777, “Human exposure to green spaces and monoterpenes: discovery and use of α-pinene metabolites as biomarkers” (Environment international, 2025).

Assays:
[1] = aPM in mouse urine after i.p. injection of (+)-α-pinene or (−)-α-pinene; type: in vivo, mice (C57BL/6); details: for (1R)-(+)-α-Pinene (Average), proportion of aPM in mouse urine / (1S)-(−)-α-Pinene (Average), proportion of aPM in mouse urine: mouse urine collected overnight, 50 mg/kg; for (1R)-(+)-α-Pinene (Average), proportion of aPM in mouse urine: 50 mg/kg i.p. (+)-α-pinene; for (1S)-(−)-α-Pinene (Average), proportion of aPM in mouse urine: 50 mg/kg i.p. (−)-α-pinene; for R/(R+S): mouse urine, enantiomer specificity; for Detection in mouse urine: after exposure to either α-pinene enantiomer
Procedure: Mouse urine was collected after exposures to either (+) or (−) α-pinene to distinguish between metabolites of different enantiomers of α-pinene. Adult male mice (C57BL/6) were intraperitoneally administered with 50 mg/kg body weight of (+)-α-pinene or (−)-α-pinene dissolved in 100 μl sterile saline with 1 % Tween 80.

[2] = Kinetic modeling of urinary aPM with a pseudo one-compartment nonlinear mixed-effects model after α-pinene inhalation; type: in vivo, human; details: for F (%), fraction of metabolite generated from absorbed α-pinene: human urine after 10 min α-pinene inhalation, F normalized to the sum of 22 detected metabolites; for Elimination t1/2 / Ka, first-order generation constant / Ke, first-order elimination rate constant: human urine after α-pinene inhalation, pseudo one-compartment model
From the text: In this equation, i represents the participant index, j the urine sample index, C the creatinine-normalized peak response, and t the sample collection time ( h).Ka denotes the first-order generation constant ( h^−1 ), and Ke denotes the first-order elimination rate constant h^−1 . F indicates the fraction of specific aPM relative to absorbed α-pinene. The variables D and V refer to the absorbed α-pinene amount and the distribution volume, respectively. Because input data were derived from relative quantification, absolute values of D , V , and F were not available. For simplicity, D and V were fixed at 100 and 1, respectively, and F was normalized relative to the sum of all detected aPM. The error term ε accounts for residual variation.

[3] = Relative quantification of urinary aPM (UPLC-QTOF-MS, creatinine-normalized) after controlled α-pinene inhalation; type: in vivo, human; details: for Frequency of occurrence (percentage of samples with analyte detected) / Maximum response (highest peak response across all urine samples) / Observed Tmax: human urine after α-pinene inhalation; for Proportion (observed) after α-pinene inhalation: share of total response of 22 aPM, averaged over post-exposure samples
Procedure: (§1) Briefly, for controlled inhalation experiments, eight healthy volunteers were exposed to α-pinene in a custom-built exposure chamber via inhalation from a 15 ml conical tube, containing approximately 100 μl α-pinene, for a duration of 10 min. Urine samples were collected before exposure (0 h) and 0.5, 1, 2, 3, and 4 h after exposure. […] Urine samples were collected both before (0 h) or 4 h after exposure. After collection, the urine samples were centrifuged and stored at −80 °C before analysis. […] Demographic information, including sex, age and race, can be found in Table S1.
(§2) Briefly, after 1:10 dilution, urine samples were separated using an Acquity I-Class UPLC system with an Acquity Premier CSH C18 UPLC column (Waters, MA) with a gradient comprising 0.1 % formic acid in water as the solvent A and 0.1 % formic acid in acetonitrile as the solvent B. Mass Spectrometry Elevated Energy (MS^E) data were collected using a Waters Synapt XS MS (Waters, MA) with an ESI ion source operated in the negative mode. Subsequent analyses of raw files were performed using UNIFI 1.9 and Progenesis QI 3.0 (both from Waters, MA). To validate LC-MS performance, one quality control (QC) sample, prepared by pooling equal amount of each urine sample, was injected after every ten urine sample injections.
(§3) Relative quantification of aPM was performed based on the peak responses normalized to urinary creatinine levels. Urinary creatinine levels were measured using an Ace Axcel Clinical Chemistry System with ACE Creatinine Reagent from Alfa Wassermann (West Caldwell, NJ). Statistical analyses, including ANOVA and Student’s t-tests, were conducted using SAS 9.4 (SAS Institute, NC) to explore differences in aPM across various time points. […] A threshold for statistical significance was defined as p < 0.05.

[4] = Urinary aPM after 4 h greenness (forest) exposure; type: in vivo, human; design: Maximum response: unit not given here; details: for Frequency of occurrence / Maximum response: human urine, greenness exposure; for Proportion (observed) after greenness exposure: share of total aPM response
Procedure: as §1, §2, §3

Compound	(1R)-(+)-α-Pinene (Average), proportion of aPM in mouse urine [1]	(1S)-(−)-α-Pinene (Average), proportion of aPM in mouse urine [1]	R/(R+S) [1]	F (%), fraction of metabolite generated from absorbed α-pinene [2]	Elimination t1/2 [2]	Ka, first-order generation constant [2]	Ke, first-order elimination rate constant [2]	Frequency of occurrence (percentage of samples with analyte detected) [3]	Maximum response (highest peak response across all urine samples) [3]	Observed Tmax [3]	Proportion (observed) after α-pinene inhalation [3]	Frequency of occurrence [4]	Detection in mouse urine [1]	Maximum response [4]	Proportion (observed) after greenness exposure [4]
CC1(C)C2CC=C(C(=O)OC3OC(C(=O)O)C(O)C(O)C3O)C1C2 (single isomer, unassigned) [aPM3a, Myrtenic acid-GlcA]	0.0%	10.0%	0%	2.92 ± 0.94%	0.93 ± 0.27 h	1.80 ± 0.67 h⁻¹	0.75 ± 0.22 h⁻¹	93.8%	50629	1 h	3.2%	0.0%			
CC1(C)C2CC=C(C(=O)OC3OC(C(=O)O)C(O)C(O)C3O)C1C2 (single isomer, unassigned) [aPM3b, Myrtenic acid-GlcA]	1.6%	2.7%	37.5%		0.61 ± 0.13 h	1.98 ± 0.60 h⁻¹	1.13 ± 0.24 h⁻¹	100.0%	352366	1 h		87.5%	present in murine samples	2516	17.7%
CC1(C)C2CCC(C(=O)OC3OC(C(=O)O)C(O)C(O)C3O)C1C2 (single isomer, unassigned) [aPM4a, Dihydromyrtenic acid-GlcA]	0.0%	5.0%	0.0%	3.19 ± 1.11%	0.71 ± 0.22 h	2.12 ± 0.87 h⁻¹	0.98 ± 0.30 h⁻¹	89.6%	72991	1 h	2.4%	6.3%		53	0.0%
CC1(C)C2CCC(C(=O)OC3OC(C(=O)O)C(O)C(O)C3O)C1C2 (single isomer, unassigned) [aPM4b, Dihydromyrtenic acid-GlcA]	0.0%	4.2%	0.0%	1.47 ± 0.63%	0.79 ± 0.26 h	1.34 ± 0.47 h⁻¹	0.87 ± 0.28 h⁻¹	81.3%	14109	1 h	1.2%	0.0%			
CC1(C)C2CCC(C(=O)OC3OC(C(=O)O)C(O)C(O)C3O)C1C2 (single isomer, unassigned) [aPM4c, Dihydromyrtenic acid-GlcA]	0.0%	0.1%	0.0%	0.26 ± 0.08%	1.51 ± 0.54 h	1.65 ± 0.67 h⁻¹	0.46 ± 0.16 h⁻¹	89.6%	5156	1 h	0.5%	0.0%			
CC1(C)C2CCC(C(=O)OC3OC(C(=O)O)C(O)C(O)C3O)C1C2 (single isomer, unassigned) [aPM4d, Dihydromyrtenic acid-GlcA]	0.0%	0.2%	0.0%	13.03 ± 5.57%	1.01 ± 0.40 h	0.73 ± 0.29 h⁻¹	0.68 ± 0.27 h⁻¹	97.9%	183468	1 h		68.8%	present in murine samples	7375	9.4%
CC1(C)C2CCC(C(=O)OC3OC(C(=O)O)C(O)C(O)C3O)C1C2 (single isomer, unassigned) [aPM4e, Dihydromyrtenic acid-GlcA]	0.1%	0.2%	24.1%	18.14 ± 6.52%	0.99 ± 0.33 h	1.26 ± 0.50 h⁻¹	0.70 ± 0.24 h⁻¹	95.8%	241782	1 h		93.8%	present in murine samples	27114	67.8%
CC1(C)C2CC1C(OC1OC(C(=O)O)C(O)C(O)C1O)C=C2C(=O)O (single isomer, unassigned) [aPM5a, Myrtenic acid-4-O-GlcA]	0.0%	0.1%	0%	0.25 ± 0.09%	1.00 ± 0.38 h	1.64 ± 0.77 h⁻¹	0.70 ± 0.27 h⁻¹	79.2%	4787	1 h	0.3%	0.0%			
α-Pinene-O-GlcA [aPM2a]				0.51 ± 0.12%	0.56 ± 0.08 h		1.23 ± 0.17 h⁻¹			0.5 h					0.9%
